# How the values were obtained:
# Experiment in all cases: cells
# Conditions in all cases: Homo sapiens
# Calu-6 = assay type: functional, cell-based;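 note: growth of human Calu-6 cells, read out by a cell viability assay, IC50 marking inhibition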
# Description: SANGER: Inhibition of human Calu-6 cell growth in a cell viability assay.
# DB = assay type: functional, cell-based
# Description: SANGER: Inhibition of human DB cell growth in a cell viability assay.
# ES1 = assay type: functional, cell-based;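 note: growth inhibition of ES1 cells, read out with a cell viability assay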
# Description: SANGER: Inhibition of human ES1 cell growth in a cell viability assay.
# ES6 = assay type: functional, cell-based;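 note: growth inhibition of human ES6 cells, read out with a cell viability assay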
# Description: SANGER: Inhibition of human ES6 cell growth in a cell viability assay.
# EOL1 = assay type: functional, cell-based;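 note: growth inhibition of EoL-1 cells, read out by a cell viability assay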
# Description: SANGER: Inhibition of human EoL-1-cell cell growth in a cell viability assay.
# GAK = assay type: functional, cell-based;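 note: cell growth inhibition read out by a cell viability assay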
# Description: SANGER: Inhibition of human GAK cell growth in a cell viability assay.
# GB-1 = assay type: functional, cell-based;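 note: growth of GB-1 cells judged by a viability assay, IC50 marks the concentration inhibiting growth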
# Description: SANGER: Inhibition of human GB-1 cell growth in a cell viability assay.
# HD-MY-Z = assay type: functional, cell-based;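 note: growth inhibition of HD-MY-Z cells, read out with a cell viability assay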
# Description: SANGER: Inhibition of human HD-MY-Z cell growth in a cell viability assay.
# HH = assay type: functional, cell-based
# Description: SANGER: Inhibition of human HH cell growth in a cell viability assay.
# IST-SL1 = assay type: functional, cell-based;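 note: growth inhibition of human IST-SL1 cells, read out with a cell viability assay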
# Description: SANGER: Inhibition of human IST-SL1 cell growth in a cell viability assay.
# JAR = assay type: functional, cell-based;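 note: growth inhibition of human JAR cells determined with a cell viability assay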
# Description: SANGER: Inhibition of human JAR cell growth in a cell viability assay.
# JEG-3 = assay type: functional, cell-based;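 note: growth inhibition of human JEG-3 cells, read out with a cell viability assay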
# Description: SANGER: Inhibition of human JEG-3 cell growth in a cell viability assay.
# KINGS-1 = assay type: functional, cell-based;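 note: cell viability assay measuring suppression of KINGS-1 cell growth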
# Description: SANGER: Inhibition of human KINGS-1 cell growth in a cell viability assay.
# KM-H2 = assay type: functional, cell-based;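 note: growth inhibition of KM-H2 cells, read out by a cell viability assay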
# Description: SANGER: Inhibition of human KM-H2 cell growth in a cell viability assay.
# KM12 = assay type: functional, cell-based;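 note: KM12 cell growth inhibition, read out with a cell viability assay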
# Description: SANGER: Inhibition of human KM12 cell growth in a cell viability assay.
# KYSE-450 = assay type: functional, cell-based;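 note: cell growth inhibition measured by a viability assay in human KYSE-450 cells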
# Description: SANGER: Inhibition of human KYSE-450 cell growth in a cell viability assay.
# LAN-6 = assay type: functional, cell-based;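 note: growth inhibition of LAN-6 cells, determined with a cell viability assay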
# Description: SANGER: Inhibition of human LAN-6 cell growth in a cell viability assay.
# LB2518-MEL = assay type: functional, cell-based;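 note: growth inhibition of human LB2518-MEL cells, measured with a cell viability assay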
# Description: SANGER: Inhibition of human LB2518-MEL cell growth in a cell viability assay.
# LB831-BLC = assay type: functional, cell-based;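 note: growth inhibition of LB831-BLC cells, read out with a cell viability assay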
# Description: SANGER: Inhibition of human LB831-BLC cell growth in a cell viability assay.
# LS-1034 = assay type: functional, cell-based
# Description: SANGER: Inhibition of human LS-1034 cell growth in a cell viability assay.
# MDA-MB-157 = assay type: functional, cell-based
# Description: SANGER: Inhibition of human MDA-MB-157 cell growth in a cell viability assay.
# MDA-MB-453 = assay type: functional, cell-based
# Description: SANGER: Inhibition of human MDA-MB-453 cell growth in a cell viability assay.
# MHH-PREB-1 = assay type: functional, cell-based;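 note: cell viability assay measuring inhibition of proliferation of human MHH-PREB-1 cells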
# Description: SANGER: Inhibition of human MHH-PREB-1 cell growth in a cell viability assay.
# ML-2 = assay type: functional, cell-based;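 note: growth inhibition of ML-2 cells, measured with a cell viability readout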
# Description: SANGER: Inhibition of human ML-2 cell growth in a cell viability assay.
# MN-60 = assay type: functional, cell-based;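 note: growth inhibition of the MN-60 cell line, determined with a cell viability assay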
# Description: SANGER: Inhibition of human MN-60 cell growth in a cell viability assay.
# MS-1 = assay type: functional, cell-based;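 note: growth inhibition of MS-1 cells, read out by cell viability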
# Description: SANGER: Inhibition of human MS-1 cell growth in a cell viability assay.
# MV4-11 = assay type: functional, cell-based, MV-4-11;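 note: cell viability readout measuring growth inhibition of human MV-4-11 cells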
# Description: SANGER: Inhibition of human MV-4-11 cell growth in a cell viability assay.
# NB13 = assay type: functional, cell-based;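 note: cell viability readout measuring growth inhibition of human NB13 cells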
# Description: SANGER: Inhibition of human NB13 cell growth in a cell viability assay.
# NCI-H1155 = assay type: functional, cell-based;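 note: cell growth inhibition measured by a viability assay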
# Description: SANGER: Inhibition of human NCI-H1155 cell growth in a cell viability assay.
# NCI-H1299 = assay type: functional, cell-based;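 note: growth inhibition of human NCI-H1299 cells, read out by a cell viability assay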
# Description: SANGER: Inhibition of human NCI-H1299 cell growth in a cell viability assay.
# NCI-H1355 = assay type: functional, cell-based;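 note: growth inhibition of human NCI-H1355 cells, read out by a cell viability assay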
# Description: SANGER: Inhibition of human NCI-H1355 cell growth in a cell viability assay.
# NCI-H1563 = assay type: functional, cell-based;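 note: growth inhibition of human NCI-H1563 cells, read out with a cell viability assay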
# Description: SANGER: Inhibition of human NCI-H1563 cell growth in a cell viability assay.
# NCI-H1770 = assay type: functional, cell-based;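 note: growth inhibition of NCI-H1770 cells determined with a viability readout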
# Description: SANGER: Inhibition of human NCI-H1770 cell growth in a cell viability assay.
# NCI-H2052 = assay type: functional, cell-based;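 note: growth inhibition of NCI-H2052 cells, read out with a cell viability assay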
# Description: SANGER: Inhibition of human NCI-H2052 cell growth in a cell viability assay.
# SNU1 = assay type: functional, cell-based;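 note: growth inhibition of human NCI-SNU-1 cells, measured with a cell viability assay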
# Description: SANGER: Inhibition of human NCI-SNU-1 cell growth in a cell viability assay.
# OCI-AML2 = assay type: functional, cell-based;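 note: growth inhibition of OCI-AML2 cells, read out with a cell viability assay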
# Description: SANGER: Inhibition of human OCI-AML2 cell growth in a cell viability assay.
# OCUB-M = assay type: functional, cell-based;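 note: growth inhibition of the cancer cell line, read out through a cell viability assay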
# Description: SANGER: Inhibition of human OCUB-M cell growth in a cell viability assay.
# OVCAR-8 = assay type: functional, cell-based;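 note: growth inhibition of human OVCAR-8 cells, read out by a cell viability assay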
# Description: SANGER: Inhibition of human OVCAR-8 cell growth in a cell viability assay.
# QIMR-WIL = assay type: functional, cell-based;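 note: growth inhibition of QIMR-WIL cells, read out with a cell viability assay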
# Description: SANGER: Inhibition of human QIMR-WIL cell growth in a cell viability assay.
# RCC10RGB = assay type: functional, cell-based;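 note: growth inhibition of human RCC10RGB cells, read out by a cell viability assay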
# Description: SANGER: Inhibition of human RCC10RGB cell growth in a cell viability assay.
# RPMI-8226 = assay type: functional, cell-based
# Description: SANGER: Inhibition of human RPMI-8226 cell growth in a cell viability assay.
# RPMI-8866 = assay type: functional, cell-based
# Description: SANGER: Inhibition of human RPMI-8866 cell growth in a cell viability assay.
# RS4-11 = assay type: functional, cell-based;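 note: growth inhibition of RS4-11 cells, read out by a cell viability assay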
# Description: SANGER: Inhibition of human RS4-11 cell growth in a cell viability assay.
# SF-126 = assay type: functional, cell-based;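 note: growth inhibition of human SF126 cells, read out with a cell viability assay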
# Description: SANGER: Inhibition of human SF126 cell growth in a cell viability assay.
# SF-268 = assay type: functional, cell-based;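 note: growth inhibition of SF-268 cells determined with a cell viability assay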
# Description: SANGER: Inhibition of human SF268 cell growth in a cell viability assay.
# SNB-75 = assay type: functional, cell-based;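 note: cell viability assay measuring growth inhibition of human SNB-75 cells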
# Description: SANGER: Inhibition of human SNB75 cell growth in a cell viability assay.
# SW 962 = assay type: functional, cell-based;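 note: growth inhibition of human SW962 cells, read out by a cell viability assay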
# Description: SANGER: Inhibition of human SW962 cell growth in a cell viability assay.
# SW982 = assay type: functional, cell-based;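 note: growth inhibition of SW982 cells, read out with a cell viability assay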
# Description: SANGER: Inhibition of human SW982 cell growth in a cell viability assay.
# 697 = assay type: functional, cell-based
# Description: SANGER: Inhibition of human 697 cell growth in a cell viability assay.
# A498 = assay type: functional, cell-based;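 note: growth inhibition of human A498 cells, read out with a cell viability assay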
# Description: SANGER: Inhibition of human A498 cell growth in a cell viability assay.
# A704 = assay type: functional, cell-based;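 note: growth inhibition of human A704 cells, read out with a cell viability assay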
# Description: SANGER: Inhibition of human A704 cell growth in a cell viability assay.
# AM-38 = assay type: functional, cell-based;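 note: growth inhibition of AM-38 cells of human origin, read out by a cell viability assay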
# Description: SANGER: Inhibition of human AM-38 cell growth in a cell viability assay.
# C8166 = assay type: functional, cell-based;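 note: growth inhibition of human C8166 cells measured by a cell viability assay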
# Description: SANGER: Inhibition of human C8166 cell growth in a cell viability assay.
# TE-12 = assay type: functional, cell-based;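 note: growth inhibition of TE-12 cells, read out by a cell viability assay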
# Description: SANGER: Inhibition of human TE-12 cell growth in a cell viability assay.
# UMC-11 = assay type: functional, cell-based;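 note: growth inhibition of UMC-11 cells, read out with a cell viability assay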
# Description: SANGER: Inhibition of human UMC-11 cell growth in a cell viability assay.
# no-11 = assay type: functional, cell-based;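 note: growth inhibition of human NO-11 cells, read out with a cell viability assay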
# Description: SANGER: Inhibition of human no-11 cell growth in a cell viability assay.
# COLO-684 = assay type: functional, cell-based
# Description: SANGER: Inhibition of human COLO-684 cell growth in a cell viability assay.
# HC-1 = assay type: functional, cell-based;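 note: growth inhibition of HC-1 cells measured by a cell viability assay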
# Description: SANGER: Inhibition of human HC-1 cell growth in a cell viability assay.
# HuTu80 = assay type: functional, cell-based, HUTU-80;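 note: growth inhibition of HuTu80 human cells, determined with a cell viability readout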
# Description: SANGER: Inhibition of human HUTU-80 cell growth in a cell viability assay.
# MKN-45 = assay type: functional, cell-based
# Description: SANGER: Inhibition of human MKN45 cell growth in a cell viability assay.
structure (smiles),measurement,setting,value
CC(=O)c1c(C)c2cnc(Nc3ccc(N4CCNCC4)cn3)nc2n(C2CCCC2)c1=O [PALBOCICLIB],IC50,Calu-6,> 4000 nM
same,IC50,DB,1070 nM
same,IC50,ES1,256 nM
same,IC50,ES6,> 4000 nM
same,IC50,EOL1,187 nM
same,IC50,GAK,> 4000 nM
same,IC50,GB-1,> 4000 nM
same,IC50,HD-MY-Z,> 4000 nM
same,IC50,HH,599 nM
same,IC50,IST-SL1,> 4000 nM
same,IC50,JAR,> 4000 nM
same,IC50,JEG-3,> 4000 nM
same,IC50,KINGS-1,> 4000 nM
same,IC50,KM-H2,696 nM
same,IC50,KM12,1820 nM
same,IC50,KYSE-450,> 4000 nM
same,IC50,LAN-6,> 4000 nM
same,IC50,LB2518-MEL,> 4000 nM
same,IC50,LB831-BLC,> 4000 nM
same,IC50,LS-1034,> 4000 nM
same,IC50,MDA-MB-157,> 4000 nM
same,IC50,MDA-MB-453,> 4000 nM
same,IC50,MHH-PREB-1,637 nM
same,IC50,ML-2,1210 nM
same,IC50,MN-60,2310 nM
same,IC50,MS-1,> 4000 nM
same,IC50,MV4-11,514 nM
same,IC50,NB13,> 4000 nM
same,IC50,NCI-H1155,> 4000 nM
same,IC50,NCI-H1299,3050 nM
same,IC50,NCI-H1355,2560 nM
same,IC50,NCI-H1563,> 4000 nM
same,IC50,NCI-H1770,941 nM
same,IC50,NCI-H2052,> 4000 nM
same,IC50,SNU1,1160 nM
same,IC50,OCI-AML2,> 4000 nM
same,IC50,OCUB-M,> 4000 nM
same,IC50,OVCAR-8,> 4000 nM
same,IC50,QIMR-WIL,1130 nM
same,IC50,RCC10RGB,> 4000 nM
same,IC50,RPMI-8226,527 nM
same,IC50,RPMI-8866,1590 nM
same,IC50,RS4-11,505 nM
same,IC50,SF-126,> 4000 nM
same,IC50,SF-268,2230 nM
same,IC50,SNB-75,> 4000 nM
same,IC50,SW 962,809 nM
same,IC50,SW982,> 4000 nM
same,IC50,697,148 nM
same,IC50,A498,> 4000 nM
same,IC50,A704,> 4000 nM
same,IC50,AM-38,> 4000 nM
same,IC50,C8166,> 4000 nM
same,IC50,TE-12,> 4000 nM
same,IC50,UMC-11,> 4000 nM
same,IC50,no-11,> 4000 nM
same,IC50,COLO-684,> 4000 nM
CC[C@@]1(O)C(=O)OCc2c1cc1n(c2=O)Cc2cc3ccccc3nc2-1 [CAMPTOTHECIN],IC50,DB,1.16 nM
same,IC50,ES1,0.0957 nM
same,IC50,ES6,88 nM
same,IC50,EOL1,0.271 nM
same,IC50,GB-1,4.68 nM
same,IC50,HC-1,3.34 nM
same,IC50,HD-MY-Z,1.63 nM
same,IC50,HH,13.5 nM
same,IC50,HuTu80,3.38 nM
same,IC50,IST-SL1,34.4 nM
same,IC50,JAR,14.5 nM
same,IC50,JEG-3,13.1 nM
same,IC50,KM-H2,55.7 nM
same,IC50,KM12,75 nM
same,IC50,KYSE-450,23.7 nM
same,IC50,LB2518-MEL,87.3 nM
same,IC50,LB831-BLC,18.4 nM
same,IC50,LS-1034,> 100 nM
same,IC50,MDA-MB-157,7.57 nM
same,IC50,MDA-MB-453,6.97 nM
same,IC50,MHH-PREB-1,2.73 nM
same,IC50,MKN-45,27.5 nM
same,IC50,ML-2,2.16 nM
same,IC50,MN-60,5.08 nM
same,IC50,MS-1,2.77 nM
same,IC50,MV4-11,0.706 nM
same,IC50,NB13,28.8 nM
same,IC50,NCI-H1155,1.19 nM
same,IC50,NCI-H1299,9.43 nM
same,IC50,NCI-H1355,66.1 nM
same,IC50,NCI-H2052,28.3 nM
same,IC50,SNU1,1.09 nM
same,IC50,OCI-AML2,0.887 nM
same,IC50,OCUB-M,38.1 nM
same,IC50,OVCAR-8,7.27 nM
same,IC50,QIMR-WIL,0.775 nM
same,IC50,RPMI-8226,29.5 nM
same,IC50,RPMI-8866,1.72 nM
same,IC50,RS4-11,0.902 nM
same,IC50,SF-126,2.84 nM
same,IC50,SF-268,3.38 nM
same,IC50,SNB-75,17.3 nM
same,IC50,SW 962,20.5 nM
same,IC50,SW982,4.06 nM
same,IC50,697,2.03 nM
same,IC50,A498,7.08 nM
same,IC50,A704,15.4 nM
same,IC50,AM-38,4.41 nM
same,IC50,C8166,41.5 nM
same,IC50,UMC-11,> 100 nM
same,IC50,COLO-684,13.8 nM

# Reference: ChEMBL document CHEMBL1201861, “Genomics of Drug Sensitity in Cancer screening data, Wellcome Trust Sanger Institute”
